Experimental data reported in US20020183313A1, “1,4-benzodiazepinones and their uses as CCK antagonists” (Fujisawa Pharmaceutical Co., Ltd., priority 1996, published 2002).

What was measured:
[1] = molecular target: T1, guinea-pig cerebral cortical membranes (125I-CCK-8 binding) (Cavia porcellus, UniProt H0VZC5); assay: [125I]CCK-8 binding to guinea-pig cerebral cortical membranes; details: test compound 1×10^−8 M; 50 pM 125I-CCK-8; 60 minutes at 37° C.
T1 construct: from tissue; host or cells: guinea-pig cerebral cortex membranes
T1 sequence (H0VZC5 1-426): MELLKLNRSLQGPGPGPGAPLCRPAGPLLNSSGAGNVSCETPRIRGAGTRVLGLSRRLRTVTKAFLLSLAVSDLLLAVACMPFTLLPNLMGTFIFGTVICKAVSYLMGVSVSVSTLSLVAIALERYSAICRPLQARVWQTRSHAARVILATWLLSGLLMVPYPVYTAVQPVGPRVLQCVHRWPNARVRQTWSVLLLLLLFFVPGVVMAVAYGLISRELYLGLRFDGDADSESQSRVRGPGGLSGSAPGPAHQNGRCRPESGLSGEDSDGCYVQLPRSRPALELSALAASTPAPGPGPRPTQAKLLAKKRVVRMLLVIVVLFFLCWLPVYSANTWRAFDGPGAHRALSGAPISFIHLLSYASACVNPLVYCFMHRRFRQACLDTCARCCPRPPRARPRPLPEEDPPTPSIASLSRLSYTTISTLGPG
Protocol: [^125I]CCK-8 binding to guinea-pig cerebral cortical membranes
Guinea-pigs were killed by decapitation and bled to death. Cerebral cortex was removed, minced in a small quantity of 50 mM Tris-HCl buffer (pH 7.4), and homogenized in 20 vol. of the buffer by a glass-teflon homogenizer. The homogenate was centrifuged at 30000× g (16000 rpm) for 10 minutes. The pellet was then resuspended in the same buffer by a glass-teflon homogenizer and recentrifuged at 30000× g for 10 minutes. This procedure (washings) was repeated twice more. The final pellet (membrane) was suspended in incubation medium (see below) so as to obtain a final protein concentration of 4 mg/ml and frozen at −80° C. All manipulations were done at 0-4° C.
(ii) Receptor Binding Assay
The composition of incubation medium was as follows:
10 mM HEPES (pH 6.5), 5 mM MgCl2, 1 mM EGTA, 130 mM NaCI and 0.25 mg/ml bacitracin. Frozen membranes were thawed and aliquots (400 μg, protein) were incubated for 60 minutes under shaking at 37° C. in plastic tubes in 500 μL of incubation medium with 50 pM ^125I-CCK-8 in the presence or absence of test compound (1×10^−8 M). […] After washing the filter with 50 mM Tris-HCl (pH 7.4) buffer containing 0.1% BSA, the radioactivity of the filter was countered. […] The effect of the test compound was expressed as % inhibition of specific ′^125I-CCK-8 binding.

[2] = molecular target: T2, CCK-B (UniProt H0VZC5); assay: Receptor binding studies, CCK-B
T2 construct: IC50 (nM) for CCK-B
T2 sequence (H0VZC5 1-426): T1 sequence (H0VZC5 1-426)
Protocol: (§1) Receptor binding studies and gastric emptying in mice
(§2) The tests were carried out in accordance with the method described at pages 571 to 572 in the following literature;
(§3) Harunobu Ito, Hajime Sogabe et al., The Journal of Pharmacology and Experimental Therapeutics, 571, No.2, Vol.268 (1994).

[3] = test system: CCK-B; assay: Receptor binding studies, CCK-B; details: ratio IC50 CCK-A / IC50 CCK-B
Protocol: as §1, §2, §3

[4] = molecular target: T3, CCK-A (UniProt P30551); assay: Receptor binding studies, CCK-A
T3 sequence (P30551 1-444): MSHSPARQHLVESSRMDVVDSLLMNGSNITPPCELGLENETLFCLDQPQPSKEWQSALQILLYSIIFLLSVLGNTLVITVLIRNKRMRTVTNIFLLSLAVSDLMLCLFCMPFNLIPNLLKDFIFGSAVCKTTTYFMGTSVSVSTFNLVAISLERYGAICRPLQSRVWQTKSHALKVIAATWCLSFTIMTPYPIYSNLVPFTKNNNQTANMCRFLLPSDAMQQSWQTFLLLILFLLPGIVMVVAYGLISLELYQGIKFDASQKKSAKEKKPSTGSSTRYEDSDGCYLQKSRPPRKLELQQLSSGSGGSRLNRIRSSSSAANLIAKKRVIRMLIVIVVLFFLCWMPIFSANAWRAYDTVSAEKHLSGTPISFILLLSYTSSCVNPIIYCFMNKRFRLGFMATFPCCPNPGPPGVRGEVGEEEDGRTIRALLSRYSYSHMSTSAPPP
Protocol: as §1, §2, §3

[5] = test system: mice; assay: Gastric emptying in mice; type: in vivo
Protocol: as §1, §2, §3

Row | Inhibition (%) of specific 125I-CCK-8 binding [1] | IC50 [2] | selectivity A/B [3] | IC50 [4] | melting point | SMILES | Gastric emptying ID50 [5]
1 | – | 1.1 nM | 1.82 | 2 nM | 143.6 to 144.2 °C | Cc1cccc(NC(=O)NC2N=C(C3CC3)c3cccc(C)c3N(CC(=O)C3CCCCC3)C2=O)c1 (racemic) [(D), N-[(3RS)-1-cyclohexylcarbonylmethyl-5-cyclopropyl-2,3-dihydro-9-methyl-2-oxo-1H-1,4-benzodiazepin-3-yl]-N′-(3-methylphenyl)urea] | 1.8 mg/kg
2 | – | 3.7 nM | 0.30 | 1.1 nM | 179.2 to 180.9 °C | CC1=NC(NC(=O)Nc2cccc(C)c2)C(=O)N(CC(=O)C2CCCCC2)c2c(C)cccc21 (racemic) [Compound (A), N-[(3RS)-1-cyclohexylcarbonylmethyl-2,3-dihydro-5,9-dimethyl-2-oxo-1H-1,4-benzodiazepin-3-yl]-N′-(3-methylphenyl)urea] | 0.4 mg/kg
3 | – | – | – | – | 162.9 to 164.4 °C | CC1=NC(NC(=O)Nc2cccc(C)c2)C(=O)N(CC(=O)C2CCCCCCC2)c2c(C)cccc21 (racemic) [Example 72, N-[(3RS)-1-Cyclooctylcarbonylmethyl-2,3-dihydro-5,9-dimethyl-2-oxo-1H-1,4-benzodiazepin-3-yl]-N′-(3-methylphenyl)urea] | –

Second part, the compound before the results:

Row | SMILES | Inhibition (%) of specific 125I-CCK-8 binding [1] | IC50 [2] | selectivity A/B [3] | IC50 [4] | melting point | Gastric emptying ID50 [5]
4 | CC(=O)c1sccc1CN1C(=O)C(NC(=O)Nc2cccc(C)c2)N=C(C(C)C)c2ccccc21 (racemic) [(2)] | 97% | – | – | – | – | –
5 | CCC1=NC(NC(=O)Nc2cccc(C)c2)C(=O)N(CC(=O)C2CCCCC2)c2c(C)cccc21 (racemic) [(B), N-[(3RS)-1-cyclohexylcarbonylmethyl-2,3-dihydro-5-ethyl-9-methyl-2-oxo-1H-1,4-benzodiazepin-3-yl]-N′-(3-methylphenyl)urea] | – | 1.6 nM | 0.56 | 0.9 nM | 161.2 to 164 °C | 0.4 mg/kg
6 | Cc1cccc(NC(=O)NC2N=C(CO)c3cccc(C)c3N(CC(=O)N3CCCCCCC3)C2=O)c1 (racemic) [Example 71-2, N-[(3RS)-1-(Azacyclooctan-1-yl)carbonylmethyl-2,3-dihydro-5-hydroxymethyl-9-methyl-2-oxo-1H-1,4-benzodiazepin-3-yl]-N′-(3-methylphenyl)urea] | – | – | – | – | 214.5 to 216 °C | –
7 | Cc1cccc(NC(=O)NC2N=C(CC(C)C)c3cccc(C)c3N(CC(=O)C3CCCCC3)C2=O)c1 (racemic) [Example 73, N-[(3RS)-1-Cyclohexylcarbonylmethyl-2,3-dihydro-5-isobutyl-9-methyl-2-oxo-1H-1,4-benzodiazepin-3-yl]-N′-(3-methylphenyl)urea] | – | – | – | – | 152.3 to 154.8 °C | –
8 | CCC1=N[C@@H](NC(=O)Nc2cccc(C)c2)C(=O)N(CC(=O)C2CCCCC2)c2c(C)cccc21 [(C), N-[(3R)-1-cyclohexylcarbonylmethyl-5-ethyl-9-methyl-2-oxo-2,3-dihydro-1H-1,4-benzodiazepin-3-yl]-N′-(3-methylphenyl)urea] | – | 1 nM | 0.30 | 0.3 nM | – | 0.23 mg/kg
